Values joined by “and” are separate entries in the source; they are usually repeats but may differ in a detail not shown here. Equal entries are not always repeated. Where two headings read alike, the source gives them in different places.
Columns and labels:
P. falciparum NF54 = test: IC50 speed assay; type: cell-based, Plasmodium falciparum; conditions: for IC50: Plasmodium falciparum, mean±s.d., three biological replicates
Description: To assess the rapidity of growth inhibition induced by the steroid compounds, the so-called IC50 speed assay[16] was conducted for compound 1o on P. falciparum NF54 (Fig. 2a,b).

[1] = system: P. berghei GFP ANKA malaria strain; test: P. berghei mouse model (Peter's test); type: in vivo, Plasmodium berghei in NMRI mice
Description: The animal experiments described here were performed at the Swiss Tropical and Public Health Institute (Swiss TPH, Basel, Switzerland), they were approved by the Swiss Cantonal Authorities (‘Kantonales Veterinäramt Basel Stadt') adhering to local and national regulations of laboratory animal welfare in Switzerland. The best compounds were tested in the murine P. berghei model essentially as described. The infection was initiated at day 0 with the P. berghei GFP ANKA malaria strain (donation from AP Waters and CJ Janse, Leiden University). From donor mice (female NMRI mice, 18–20 grams (about 3 weeks) from Charles River Germany) with ∼30% parasitaemia, heparinized blood was taken and diluted in physiological saline to 10^8 parasitized erythrocytes/ml. An aliquot (0.2 ml) of this suspension was injected intravenously into experimental and control groups of mice (female NMRI mice, 18–20 grams (about 3 weeks) from Charles River Germany). Usually, in untreated control mice parasitaemia rose regularly to ∼30% by day 3 post-infection. Control mice died between days 6 and 7 post infection. In the experiments described here, however, control animals (n=5) were killed on day 4 post infection for ethical reasons.
The steroid compounds were prepared at an appropriate concentration as a solution/suspension in Tween 80/alcohol (7:3, Tween 80 and absolute ethanol, respectively), followed by a 10x dilution in water. […] The route of administration was i.p., p.o., s.c. in a volume of 10 ml kg^−1.
The degree of infection (parasitaemia expressed in % of infected erythrocytes) was determined by FACS analysis on day 4 (96 h post infection). The difference of the mean infection rate of the control group (=100%) to the test group was calculated and expressed as a percent reduction. For example, activity determination with a mean of 2% parasitaemia in treated mice and a mean of 40% parasitaemia in the control animals is calculated as follows: (40−2%)/40% × 100=95% activity. The survival time in days was recorded up to 30 days after infection. A compound was considered curative if the animal survived to day 30 after infection with no detectable parasites (confirmed by light microscopy).

[2] = system: P. berghei transmission from mice to Anopheles gambiae mosquitoes; test: in vivo transmission-blocking assay; design: species or system Plasmodium berghei; conditions: 100 mg kg−1 i.p. daily, three doses; 4 days post passage
Description: We further tested the activity of compound 1o on parasite transmission from mice to Anopheles gambiae mosquitoes. For this, P. berghei-infected mice received a daily injection of compound 1o for 3 days starting 24 h post passage and were exposed to mosquito bites 24 h after each injection. Tween 80 (Tw80) and methylene blue (MB) served as negative and positive controls, respectively. As with MB, compound 1o limited parasite multiplication in mice, albeit to a lesser extent (Fig. 3a). […]
Figure 3 Effect of compound 1o on P. berghei multiplication in mice and on parasite transmission to mosquitoes. […] Parasitemia was monitored daily and the mean± s.d. of three independent experiments are plotted. […] (b) Prevalence (percentage of infected mosquitoes) and (c) infection intensity (mean number of parasites per infected midgut) were determined 7 days post infectious blood feeding. […] Significance for differences between treatments was calculated using generalized linear models with treatment, time, and repeats as variables, ***P value <0.001 (a–c). n, number of mosquitoes. […] Survival of treated gametocytes was calculated for each concentration relative to parasites exposed to vehicle. […]
Parasitaemia was determined daily via FACS analysis (FACSCalibur, BD Bioscience). […]

[3] = 4x 100 mg/kg i.p., recorded up to 30 days
[4] = 4x 100 mg/kg p.o., recorded up to 30 days

In the case of `COc1ccc2c(c1)CCC1C2CC[C@@]2(C)C1CC[C@H]2NCc1cc2ccccc2cc1O` (stereo partly drawn) [1o], the “speed of action (IC50 shift across 24, 48, 72 h)” value (P. falciparum NF54) is reported as “no significant IC50 shifts”, the IC50 (P. falciparum NF54; NF54, read-out: IC50 24 h, 24 h compound incubation) is reported as 2.9 ± 0.2 nM and the IC50 (P. falciparum NF54; NF54, 48 h compound incubation, read-out: IC50 48 h) is reported as 3.4 ± 0.2 nM. The IC50 (P. falciparum NF54; NF54, 72 h compound incubation, read-out: IC50 72 h) was 2.7 ± 0.4 nM, the “% activity (reduction of parasitaemia)” value ([1]; 1x 100 mg/kg p.o.) was 98% and the “% of control” value ([1]; 1x 100 mg/kg p.o.) was 1.5%. The “Mouse survival in days, Average” value ([1]; 1x 100 mg/kg p.o.) was 13 days, the “Mouse survival in days, individual mice M1-M3” value ([1]; 1x 100 mg/kg p.o.) was 14 days (2×) and 11 days and the “Parasitized RBC over 100, Average” value ([1]; 1x 100 mg/kg p.o.) was 0.47. The “Parasitized RBC over 100, individual mice M1-M3” value ([1]; 1x 100 mg/kg p.o.) was 0.30 and 0.60 and 0.50, the “Parasitized RBC after 30 d (microscope), individual mice” value ([1]; 4x 100 mg/kg i.p.) was 0.0 and the “% activity (reduction of parasitaemia)” value ([1]; 4x 100 mg/kg i.p., day 4) was 99.8%. For the same compound, the “% of control” value ([1]; 4x 100 mg/kg i.p., day 4) was 0.17%, the “Parasitized RBC over 100, Average” value ([1]; 4x 100 mg/kg i.p., day 4) was 0.10 and the “Parasitized RBC over 100, individual mice M1-M3” value ([1]; 4x 100 mg/kg i.p., day 4) was 0.10. The “Mouse survival in days, Average” value [1, 3] was greater than 30 days, the “Mouse survival in days, individual mice M1-M3” value [1, 3] was 30 days and the “% activity (reduction of parasitaemia)” value ([1]; 4x 100 mg/kg p.o.) was 99.8%. The “% of control” value ([1]; 4x 100 mg/kg p.o.) was 0.22%, the “Parasitized RBC after 30 d (microscope), individual mice” value ([1]; 4x 100 mg/kg p.o.) was 0.0 and the “Parasitized RBC over 100, Average” value ([1]; 4x 100 mg/kg p.o.) was 0.13. The “Parasitized RBC over 100, individual mice M1-M3” value ([1]; 4x 100 mg/kg p.o.) was 0.00 and 0.30 and 0.10, the “Mouse survival in days, Average” value [1, 4] was 27 days and the “Mouse survival in days, individual mice M1-M3” value [1, 4] was 30 days (2×) and 20 days. For the same compound, the cure of mice ([1]; 4 × 100 mg kg−1 i.p.) was “all mice treated were cured”, the cure of mice ([1]; 4 × 100 mg kg−1 oral) was “two thirds of the animals were cured” and the “parasite transmission to mosquitoes” value [2] was “fully block parasite transmission to mosquitoes”.
